Data from patent publication US20110097745A1, “Method For Detecting Microbes” (priority 2007, published 2011).
In brackets after ≈: the same amount, converted by molar mass.

Experiments:
[1] = system: infecting bacteria of urine samples; assay: antibiotics disc inhibition zone, urine samples (standard analysis); assay type: cell-based
Procedure: A standard analysis (urine culture colony count) was performed to evaluate bacterial load (Table 5a) and antibiotic susceptibility (Table 5b).

[2] = system: infecting bacteria of urine samples; assay: BLT antibiotic susceptibility of urine samples; assay type: cell-based; set-up: BLT (luminescence): unit not given here; conditions: for BLT (luminescence): 3 hrs 37 C, concentrations given in Table 5; for antibiotic susceptibility of urine samples: key: R = resistant; S = susceptible
Procedure: Six fresh urine samples were obtained from a local clinic and examined for bacteriuria (>10^5 cells/mL urine) and the antibiotic susceptibility of the infecting bacteriuria. A tube containing a an antibiotic mixture that would eliminate all infecting bacteria but not effect the lux cells (Ampicillin, Kanamycin, Tetracyclin, and Chloramphenicol) served as a control.
Each urine sample was diluted in Medium 1 to yield a final concentration of 3%. 0.1 mL of the diluted samples were then incubated for 3 hrs. at 37 degrees Celsius in a microtitre plate, with or without an antimicrobial substance at the concentrations given in Table 5).
An equal volume of Medium 2 containing 10 ng/ml autoinducer and supplemented with 10^6 of the lux cells was then added to each well. The microtiter plate was then incubated at 28 degrees/Celsius and the luminescence was measured using a plate reader luminometer.
Luminescence was measured in the absence of antibiotics, in the presence of a mixture of antibiotics and in the presence of a single antibiotic from the mixture.
When the ratio of the luminescence measured in the presence of the single antibiotic to that measured in the presence of the antibiotic mix exceeds a second predetermined constant (e.g. 3) then the infecting bacteria are […] to the antibiotic.

S. aureus [3] = assay: BLT (bioluminescence test) MIC determination
E. coli (W4110) = assay: overnight disk diffusion test; assay type: cell-based; conditions: 16 hrs 37 C
Procedure: (§1) Infecting bacteria (10^6 cells/ml from overnight grown cultures) were spread on LA plates on which 15 mm disks, saturated with various antibiotics, had been placed. After incubating the plates at 37 degrees Celsius for 16 hrs the zone of inhibition was determined for each strain. (Abbreviations used in FIG. 1a and Table 1a: CAP—Chloramphenicol; KAN—Kanamycin; AMP—Ampicillin; CEP—Cephamezin GEN—Gentamycin).

S. typhimirium (772) = assay: overnight disk diffusion test; assay type: cell-based; conditions: 16 hrs 37 C
Procedure: as §1

P. aeroginosa [4] = assay: overnight disk diffusion test; assay type: cell-based; conditions: 16 hrs 37 C
Procedure: as §1

S. aureus [5] = assay: Gram differentiation with CTAB, tester bacteria luminescence; assay type: cell-based; conditions: +CTAB (3 ppm), 2 hrs 37 C, read after 60 min
Procedure: (§2) Gram-positive bacteria are more sensitive than Gram-negative bacteria to low concentrations of the cationic detergent CTAB. Overnight grown cultures of different strains of infecting bacteria were washed and suspended in saline. About 10^5 cells/well were aliquoted in 0.1 mL Medium 1 (Davis, 0.1% glucose, 25 ppm YE) in microtiter plates with or without 3 ppm of CTAB. After 2 hrs at 37 degrees Centigrade/Celsius?, 0.15 mL of Medium 2 (+10 ng/mL autoinducer) were added to each well, together with 10^6 cells/mL lux-cells. Luminescence was recorded after 60 min.

E. coli (W4100) = assay: as above; assay type: cell-based; conditions: +CTAB (3 ppm), 2 hrs 37 C, read after 60 min
Procedure: as §2

P. aeroginosa [6] = assay: as above; assay type: cell-based; conditions: +CTAB (3 ppm), 2 hrs 37 C, read after 60 min
Procedure: as §2

S. typhi (772) = assay: as above; assay type: cell-based; conditions: +CTAB (3 ppm), 2 hrs 37 C, read after 60 min
Procedure: as §2

Streptococcus sp. = assay: as above; assay type: cell-based; conditions: +CTAB (3 ppm), 2 hrs 37 C, read after 60 min
Procedure: as §2

S. typhi = assay: microbe, parasite or virus in culture; assay type: cell-based

Gentamycin [Gentamicin]
Antibiotics disc inhibition zone ([1]; urine sample 1, 10 ppm): 4 mm
Antibiotics disc inhibition zone ([1]; urine sample 2, 10 ppm): 5 mm
Antibiotics disc inhibition zone ([1]; urine sample 3, 10 ppm): 6 mm
Antibiotics disc inhibition zone ([1]; urine sample 4, 10 ppm): 2 mm
Antibiotics disc inhibition zone ([1]; urine sample 6, 10 ppm): 5 mm
antibiotic susceptibility of urine samples ([2]; urine sample 1): S
BLT (luminescence) ([2]; urine sample 1, 3% urine): 53
antibiotic susceptibility of urine samples ([2]; urine sample 2): S
BLT (luminescence) ([2]; urine sample 2, 3% urine): 44
antibiotic susceptibility of urine samples ([2]; urine sample 3): S
BLT (luminescence) ([2]; urine sample 3, 3% urine): 30
antibiotic susceptibility of urine samples ([2]; urine sample 4): S
BLT (luminescence) ([2]; urine sample 4, 3% urine): 36
antibiotic susceptibility of urine samples ([2]; urine sample 5): S
BLT (luminescence) ([2]; urine sample 5, 3% urine): 11.5
antibiotic susceptibility of urine samples ([2]; urine sample 6): S
BLT (luminescence) ([2]; urine sample 6, 3% urine): 35
LU, fold increase over control (no antibiotics added) (S. aureus [3]; 0.39 ppm): 1.2
LU, fold increase over control (no antibiotics added) (S. aureus [3]; 0.781 ppm): 1.2
LU, fold increase over control (no antibiotics added) (S. aureus [3]; 1.562 ppm): 1.3
LU, fold increase over control (no antibiotics added) (S. aureus [3]; 3.125 ppm): 1.5
LU, fold increase over control (no antibiotics added) (S. aureus [3]; 6.25 ppm): 3.1
LU, fold increase over control (no antibiotics added) (S. aureus [3]; 12.5 ppm): 3.6
LU, fold increase over control (no antibiotics added) (S. aureus [3]; 25 ppm): 3.4
LU, fold increase over control (no antibiotics added) (S. aureus [3]; 50 ppm): 6.5
MIC (S. aureus [3]; lowest concentration giving two-fold increase of tester luminescence above control): 3.12-6.2 ppm
zone of inhibition (E. coli (W4110); disk 10 ppm): 15 mm
zone of inhibition (S. typhimirium (772); disk 10 ppm): 20 mm
zone of inhibition (P. aeroginosa [4]; disk 10 ppm): 20 mm

CCCCCCCCCCCCCCCC[N+](C)(C)C.[Br-] [CTAB, Cetyltrimethylammonium bromide]
luminescence of tester bacteria (S. aureus [5]): 80,405 LU
luminescence of tester bacteria (E. coli (W4100)): 52 LU
luminescence of tester bacteria (P. aeroginosa [6]): 111 LU
luminescence of tester bacteria (S. typhi (772)): 64 LU
luminescence of tester bacteria (Streptococcus sp.): 10,154 LU

O=C(N[C@H](CO)[C@H](O)c1ccc([N+](=O)[O-])cc1)C(Cl)Cl [Chloramphenicol]
Antibiotics disc inhibition zone ([1]; urine sample 1, 30 ppm): 5 mm
Antibiotics disc inhibition zone ([1]; urine sample 2, 30 ppm): 4 mm
Antibiotics disc inhibition zone ([1]; urine sample 3, 30 ppm): 7 mm
Antibiotics disc inhibition zone ([1]; urine sample 4, 30 ppm): 5 mm
Antibiotics disc inhibition zone ([1]; urine sample 6, 30 ppm): 6 mm
antibiotic susceptibility of urine samples ([2]; urine sample 1): S
BLT (luminescence) ([2]; urine sample 1, 3% urine): 62
antibiotic susceptibility of urine samples ([2]; urine sample 2): S
BLT (luminescence) ([2]; urine sample 2, 3% urine): 46
antibiotic susceptibility of urine samples ([2]; urine sample 3): S
BLT (luminescence) ([2]; urine sample 3, 3% urine): 36
antibiotic susceptibility of urine samples ([2]; urine sample 4): S
BLT (luminescence) ([2]; urine sample 4, 3% urine): 31.2
antibiotic susceptibility of urine samples ([2]; urine sample 5): S
BLT (luminescence) ([2]; urine sample 5, 3% urine): 13
antibiotic susceptibility of urine samples ([2]; urine sample 6): S
BLT (luminescence) ([2]; urine sample 6, 3% urine): 41
LU, fold increase over control (no antibiotics added) (S. aureus [3]; 0.781 ppm): 0.8
LU, fold increase over control (no antibiotics added) (S. aureus [3]; 1.562 ppm): 1.3
LU, fold increase over control (no antibiotics added) (S. aureus [3]; 3.125 ppm): 2.8
LU, fold increase over control (no antibiotics added) (S. aureus [3]; 6.25 ppm): 5.2
LU, fold increase over control (no antibiotics added) (S. aureus [3]; 12.5 ppm): 7.2
LU, fold increase over control (no antibiotics added) (S. aureus [3]; 25 ppm): 11.5
LU, fold increase over control (no antibiotics added) (S. aureus [3]; 50 ppm): 17.6
LU, fold increase over control (no antibiotics added) (S. aureus [3]; 100 ppm): 70.1
MIC (S. aureus [3]; Staphylococcus aureus): ~1.5 µg/mL (≈ 4.64 µM)
zone of inhibition (E. coli (W4110); disk 30 ppm): 25 mm
zone of inhibition (S. typhimirium (772); disk 30 ppm): 30 mm
zone of inhibition (P. aeroginosa [4]; disk 30 ppm): 15 mm
LU, fold increase over control (no antibiotics added) (S. typhi; 0.19 ppm): 0.7
LU, fold increase over control (no antibiotics added) (S. typhi; 0.39 ppm): 0.72
LU, fold increase over control (no antibiotics added) (S. typhi; 0.78 ppm): 0.63
LU, fold increase over control (no antibiotics added) (S. typhi; 1.5 ppm): 0.74
LU, fold increase over control (no antibiotics added) (S. typhi; 3.1 ppm): 1.9
LU, fold increase over control (no antibiotics added) (S. typhi; 6.25 ppm): 3.61
LU, fold increase over control (no antibiotics added) (S. typhi; 12.5 ppm): 5.42
LU, fold increase over control (no antibiotics added) (S. typhi; 25 ppm): 6.84
LU, fold increase over control (no antibiotics added) (S. typhi; 50 ppm): 5.84
MIC (S. typhi; Salmonella enterica, TYPHI, lowest concentration giving two-fold increase of tester luminescence above control): ~3 µg/mL (≈ 9.28 µM)
